Data on four molecules can be found in patent publication US4558127A, “5-Fluorouracil nitroxyl derivatives possessing antitumor activity” (priority 1984, dated 1985).

For data set [1] the following is noted: background art; cited from earlier work.
For data set [2], the system named is Schwetz erythroleukosis. Description: Antitumor activity on grafted Schwetz erythroleukosis in rats. It counts as in vivo, rat. The conditions noted are these: mongrel rats, single dose 25 mg/kg i/p, days 7-14. An excerpt: (§1) For the determination of antitumor activity these compounds (I, II, III, IV), 5-fluorouracyl and Ftorafur were used in the same solvents as in the determination of toxicity.
(§2) The determination of antitumor activity was effected on grafted tumors of mice: leukemia L-1210, leukemia P-388, Leukemia La, melanoma B-16, adenocarcinoma 755 (Ca-755), as well as on grafted tumors of rats: Schwetz erythroleukosis, Walker carcinosarcoma (WCS), Geren carcinoma.
(§3) In the determination of the antitumor activity the test compounds were introduced in equitoxic doses. Ftorafur was also used in the optimal dose which is equal to […].
(§4) As the criterion of antitumor activity on solid tumors used is the inhibition (I) of the tumor volume gain in comparison with the control, expressed in percent and calculated by the formula: [formula] wherein Vc --average volume of the tumor in the control,
(§5) Vt --average volume of the tumor in the experiment.

A short description of data set [3]: Toxicity (LD50), intraperitoneal administration, mongrel white mice, Burns method. It counts as in vivo, mouse. The conditions noted are these: mice; for LD50: mouse, in vivo, ip, intraperitoneal, I, II, III as emulsion in 10% aqueous Tween-80, IV, Ftorafur, 5-fluorouracyl as aqueous solutions; for less toxic than 5-fluorouracyl, fold: relative to 5-fluorouracyl. An excerpt:
Toxicity of the compounds according to the present invention has been determined on mongrel white mice in experimental intraperitoneal administration of these compounds and evaluated by the Burns method (using curves of accumulation of the animal death frequencies vs. dose).
As the toxicity characteristic use was made of the dose causing death of 50% of the animals employed for the experiment (LD50).
For the determination of toxicity of (1,3-bis-(2,2,5,5-tetramethyl-1-oxyl-Δ^3 -pyrrolin-3-oyl)-5-fluorouracyl(compound I), 1-(2,2,5,5-tetramethyl-1-oxyl-Δ^3 -pyrrolin-3-oyl)-5-fluorouracyl (compound II) and 3-(2,2,5,5-tetramethyl-1-oxyl-Δ^3 -pyrrolin-3-oyl)-5-fluorouracyl (compound III), these compounds were administered intraperitoneally in the form of an emulsion in a 10% aqueous solution of polyoxyethylsorbitan monooleate (Tween-80, Ferak Berlin West Germany).
For the determination of toxicity of sodium salt of 3-(2,2,5,5-tetramethyl-1-oxyl-Δ^3 -pyrrolin-3-oyl)-5-fluorouracyl (compound IV), Ftorafur and 5-fluorouracyl, these compounds were also administered intraperitoneally in the form of aqueous solutions.

Data set [4] has as its system melanoma B-16. In words: Antitumor activity on grafted melanoma B-16 in mice (inhibition of tumor volume gain). It counts as in vivo, mouse. The conditions noted are these: for Inhibition of tumor volume gain: B-16, CBAF1 mice, days 1-10.
Excerpt: as §1, §2, §3, §4, §5

The subject of data set [5] is leukemia La. In words: Antitumor activity on grafted leukemia La in mice (ELS, kinetic criterion, chemotherapeutic index). The class given is in vivo, mouse. The conditions noted are these: for ELS (extension of average life span) / kinetic criterion (.chi.) = 1-.phi.t/.phi.c / Chemotherapeutic index I40 = LD10/ED40: La, C57Bl mice; for Chemotherapeutic index I40 = LD10/ED40: i/p.
Excerpt: as §1, §2
Leukemia La was grafted intraperitoneally using a suspension of leukemic cells in a physiological solution. The inoculum contained 10^8 of leukemia cells. […]
In the determination of the antitumor activity the test compounds were introduced in equitoxic doses.
The criterion of the antitumor activity for leukemia P-338, L-1210 and La is the extension of an average life span (ELS) of the test animals as compared to the control ones, expressed in percent and calculated by the formula: [formula] wherein Lt --life span of animals in the test group;
Lc --life span of animals in the control group, i.e. without administration of the test compounds.
The comparative assessment of the scope of therapeutic action is effected using chemotherapeutic indices I40, I60 and I100 : I40 =LD10 /ED40, I60 =LD10 /ED60 I100 =LD10 /ED100, where LD10 =dose causing death of 10% of the animals; ED40, ED60 and ED100 are effective doses causing extension of the animal's life span by 40, 60 and 100 percent respectively.

The nature of data set [6]: Solubility. The class given is physicochemical. The conditions noted are these: for solubility in organic solvents: alcohols, acetone, acetonitrile, dimethylformamide, dimethylsulphoxide; for solubility in aqueous alkalis or buffer solutions: pH above 10.
A short description of data set [7]: Stability against hydrolysis. The class given is physicochemical.
The mark [8] stands for this setting: single dose 75 mg/kg i/p, days 1-7 after grafting.
Where [9] appears, read: single dose 75 mg/kg i/p, days 1-7 after grafting, control life span 6,5 days.
Setting [10] is: leukemia La, relative to Ftorafur.

On to `O=c1[nH]cc(F)c(=O)[nH]1` [5-fluorouracyl, reference compound], for which the “toxicity / side effects in words” value in data set [1] is “highly toxic, it strongly affects the function of bone marrow and gastro-intestinal tract”. For the same molecule, the “Inhibition of tumor volume gain” value turned out to be 15% in data set [2] and 0% in data set [4] (single dose 25 mg/kg i/p). Moreover, the LD50 (usually the dose at which mortality reaches 50%) in data set [3] was 100 mg/kg. Moreover, the “activity on melanoma B-16, in words” value in data set [4] (mouse, in vivo) is on record as “shows no activity”. Further, the “ELS (extension of average life span)” value in data set [5] (single dose 25 mg/kg i/p, days 1-7, control life span 6.5 days) stood at 57%; in data set [5] (single dose 35 mg/kg i/p, days 1,3,5,7, control life span 6,5 days) it was 57%. Further, the “kinetic criterion (.chi.) = 1-.phi.t/.phi.c” value in data set [5] (single dose 35 mg/kg i/p, days 1,3,5,7) was 0.67. In addition, in data set [5] (mouse, in vivo, ip), the “Chemotherapeutic index I60 = LD10/ED60” value amounted to 3.6.

Consider `CC1(C)C=C(C(=O)n2cc(F)c(=O)n(C(=O)C3=CC(C)(C)N([O])C3(C)C)c2=O)C(C)(C)N1[O]` [I, 1,3-bis-(2,2,5,5-tetramethyl-1-oxyl-Δ^3-pyrrolin-3-oyl)-5-fluorouracyl], for which, in data set [6], the “solubility in organic solvents” value is “wellsoluble” and the solubility in water entry is “sparingly soluble in water”. Besides, the “less toxic than 5-fluorouracyl, fold” value in data set [3] (i/p) is recorded as 3.5 times. The LD50 in data set [3] stood at 350 mg/kg. The “Inhibition of tumor volume gain” value in data set [4] (single dose 75 mg/kg i/p) is reported as 15%. In data set [5] (days 1-7), the “Chemotherapeutic index I40 = LD10/ED40” value is 4,0. Moreover, the “kinetic criterion (.chi.) = 1-.phi.t/.phi.c” value in data set [5] (setting [8]) is reported as 0,1. Moreover, the “ELS (extension of average life span)” value in data set [5] (setting [9]) came to 30%. Further, in data set [5] (leukemia La), the “kinetic criterion compared with Ftorafur, in words” value was “close values” and the “therapeutic effect compared with 5-fluorouracyl, in words” value was “close to 5-fluorouracyl”. Moreover, the “effectiveness relative to Ftorafur as regards ELS, fold” value in data set [5] (setting [10]) is 2 times.

In the case of `CC1(C)C=C(C(=O)n2cc(F)c(=O)[nH]c2=O)C(C)(C)N1[O]` [II, 1-(2,2,5,5-tetramethyl-1-oxyl-Δ^3 pyrrolin-3-oyl)-5-fluorouracyl], in data set [6], the “solubility in organic solvents” value is reported as “wellsoluble”, the “solubility in aqueous alkalis or buffer solutions” value was “well soluble” and the solubility in water result is reported as “sparingly soluble in water”. Besides, the “toxicity compared with 5-fluorouracyl, in words” value in data set [3] (i/p) is “substantially similar to that of 5-fluorouracyl”. In addition, the LD50 in data set [3] was found to be 150 mg/kg. For the same molecule, the “hydrolysis in aqueous solutions of alkalis” value in data set [7] (to fluorouracyl and 2,2,5,5-tetramethyl-1-oxyl-Δ^3 -pyrrolin-3-carboxylic acid, rate increases with increasing pH) is “rapidly hydrolyzed”. Further, in data set [5] (days 1-7), the “Chemotherapeutic index I40 = LD10/ED40” value was 2,0. Also, the “kinetic criterion (.chi.) = 1-.phi.t/.phi.c” value in data set [5] (setting [8]) is 0.5. Moreover, the “ELS (extension of average life span)” value in data set [5] (setting [9]) was determined as 45%. In data set [5] (leukemia La), the “therapeutic effect compared with 5-fluorouracyl, in words” value was “similar, in these characteristics, to 5-fluorouracyl”. In data set [5] (setting [10]), the “effectiveness relative to Ftorafur as regards ELS, fold” value is listed as 3 times and the “effectiveness relative to Ftorafur as regards kinetic criterion, fold” value came out at 3 times.

With `CC1(C)C=C(C(=O)n2c(=O)[nH]cc(F)c2=O)C(C)(C)N1[O]` [III, 3-(2,2,5,5-tetramethyl-1-oxyl-Δ^3-pyrrolin-3-oyl)-5-fluororacyl], in data set [6], the “solubility in organic solvents” value is “wellsoluble”, the “solubility in aqueous alkalis or buffer solutions” value is “well soluble” and the solubility in water result was “sparingly soluble in water”. In data set [3] (i/p), the “toxicity compared with Ftorafur, in words” value is “approach toxicity of Ftorafur” and the “less toxic than 5-fluorouracyl, fold” value is 5 times. This molecule also displayed an LD50 in data set [3] of 550 mg/kg. Besides, the stability against hydrolysis entry in data set [7] (room temperature, pH 3 to 11, about 5 hours) was “do not undergo any noticeable hydrolytical decomposition”. Besides, the “Chemotherapeutic index I40 = LD10/ED40” value in data set [5] (days 1-7) is on record as 7,8. Moreover, the “kinetic criterion (.chi.) = 1-.phi.t/.phi.c” value in data set [5] (single dose 65 mg/kg i/p, days 1-7) is 0,2. In addition, the “ELS (extension of average life span)” value in data set [5] (single dose 65 mg/kg i/p, days 1-7, control life span 6,5 days) came out at 40%. Besides, in data set [5] (leukemia La), the “kinetic criterion compared with Ftorafur, in words” value is given as “close values” and the “therapeutic effect compared with 5-fluorouracyl, in words” value is on record as “close to 5-fluorouracyl”. The “effectiveness relative to Ftorafur as regards ELS, fold” value in data set [5] (setting [10]) is listed as 2 times.
